Experimental findings from ChEMBL document CHEMBL4418486, “Heterocyclic compounds for the inhibition of pask” (2015) are described below.

This data set is described as follows: Half life in Sprague-Dawley rat at 10 mg/kg, po measured after 0.083 to 24 hrs post dose by LC/MS/MS analysis. The data set is classed as ADME, organism-based. The following applies: in vivo.

As usually defined, the half-life is how long it takes for the measured level to halve. Low values mean rapid decline, high ones slow decline. For `CCn1ncc2cc(-c3cc(=O)n4ncc(-c5nc(C)no5)c4[nH]3)ccc21`, the half-life was 3.55 h.
